Data reported in patent publication US9012625B2, “Method for the synthesis of a trisaccharide” (Glycom A/S, priority 2009, dated 2015).

Test: solubility in hot methanol
Assay type: physicochemical
Details: 3 volumes

- solubility in hot methanol: excellent solubility
Compound: CC1O[C@@H](OC2C(O)[C@@H](O)C(CO)O[C@H]2O[C@@H]2C(CO)OC(O)C(O)C2O)C(OCc2ccccc2)C(OCc2ccccc2)[C@@H]1OCc1ccccc1 (stereo partly drawn) [anhydrous derivative, O-(2,3,4-tri-O-benzyl-α-L-fucopyranosyl)-(1→2)-O-β-D-galactopyranosyl-(1→4)-D-glucose]
